Data taken from patent publication US20110144159A1, “ETHER BENZYLIDENE PIPERIDINE ARYL CARBOXAMIDE COMPOUNDS USEFUL AS FAAH INHIBITORS” (Pfizer Inc, priority 2008, published 2011).

Molecular target: T1, Human FAAH (Homo sapiens, UniProt O00519)
T1 construct: made in house
T1 sequence (O00519 32-579 limits assumed): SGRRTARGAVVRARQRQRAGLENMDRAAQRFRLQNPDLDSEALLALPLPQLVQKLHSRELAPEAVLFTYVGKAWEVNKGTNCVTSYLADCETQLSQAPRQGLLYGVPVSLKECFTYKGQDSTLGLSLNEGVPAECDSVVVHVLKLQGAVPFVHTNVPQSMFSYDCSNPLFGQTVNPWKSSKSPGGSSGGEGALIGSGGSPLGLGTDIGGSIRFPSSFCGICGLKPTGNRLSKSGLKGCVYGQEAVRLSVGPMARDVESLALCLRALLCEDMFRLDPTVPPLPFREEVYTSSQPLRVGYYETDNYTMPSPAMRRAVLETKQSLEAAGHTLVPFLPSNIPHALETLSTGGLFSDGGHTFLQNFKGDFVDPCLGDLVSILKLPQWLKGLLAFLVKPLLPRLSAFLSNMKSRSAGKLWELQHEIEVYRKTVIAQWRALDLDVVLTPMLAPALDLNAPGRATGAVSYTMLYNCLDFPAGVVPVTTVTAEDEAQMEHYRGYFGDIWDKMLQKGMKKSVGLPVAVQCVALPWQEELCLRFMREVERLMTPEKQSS
Experiment: FAAH assay (glutamate dehydrogenase-coupled, oleamide substrate, absorbance at 340 nm)
Assay type: biochemical
Conditions: further compounds, read-out: hFAAH_Kinact/Ki—StL
Protocol: A FAAH assay may be carried out in 384-well clear polystyrene plates in a total volume of 50 μl per well. All percents are by volume. To each well was placed the reaction mixture (40 μl) containing 1-4 nM FAAH, 50 mM NaPi, pH 7.4, 3 mM α-ketoglutarate, 0.15 mM NADH, 7.5 U/ml glutamate dehydrogenase, 2 mM ADP, 1 mM EDTA, and 0.1% Triton X-100 (The concentration shown for each component was the final concentration in the assay). To this mixture was added 5 μl of a compound of Examples 1 to 20 at various concentrations prepared in 50% DMSO (or 5 μl 50% DMSO for controls). This was immediately followed by the addition of 5 μl oleamide (500 μM) dissolved in 75% EtOH/25% DMSO and the reaction mixture was mixed for 1.5 min. The final concentrations of DMSO and EtOH in the assay are each 7.5%. The reactions was then incubated at 30° C. and the absorbance at 340 nm was collected over a period of 90 min with readings taken in 30-second intervals using SpectraMax Plus^384 Microplate Spectrophotometer (Molecular Devices, Sunnyvale, Calif.). Human FAAH used in the assay was prepared as described in the patent application WO 2006/067613. The purity of the enzyme used was greater than 98% based on an analysis by SDS-polyacrylamide gel electrophoresis followed by Coomassie Blue staining.
Initial velocity data (V) is obtained from the slopes of the initial progressive curves. They are plotted as a function of substrate concentration and fit to the Michaelis-Menten equation (1) using Prism (GraphPad Software, Inc., San Diego, Calif.) software to obtain Km and Vmax values.
To obtain potencies of irreversible inhibitors, progressive curves consistent with first order inhibition kinetics (two-step irreversible inhibition mechanism) are fit to equation (2) by nonlinear least squares regressions to determine kobs values at each inhibitor concentration, where [P]t is the absorbance at time t, V0 is a constant related to the steady state rate of the uninhibited reaction, and kobs is the first order rate constant for enzyme inactivation. The inhibitor dissociation constant (Ki) and the first order rate
constant of enzyme inactivation at infinite inhibitor concentration (kinact) are then obtained by fitting the kobs vs. [I] curves to equation (3).

Row | kinact/KI | Compound
1 | 536 M⁻¹ s⁻¹ | Cc1ccc(NC(=O)N2CCC(=Cc3cccc(OCC4CCCCO4)c3)CC2)cn1 (centres unmarked) [N-(6-methylpyridin-3-yl)-4-[3-(tetrahydro-2H-pyran-2-ylmethoxy)benzylidene]piperidine-1-carboxamide]

Same assay, conditions: irreversible inhibition potency

Row | Compound | hFAAH KInact/K
2 | CCCC(C)Oc1cccc(C=C2CCN(C(=O)Nc3cccnn3)CC2)c1 (centres unmarked) [Example 31, 4-[3-(1-methylbutoxy)benzylidene]-N-pyridazin-3-ylpiperidine-1-carboxamide] | 7450 M⁻¹ s⁻¹
3 | CCC(C)COc1cccc(C=C2CCN(C(=O)Nc3cccnn3)CC2)c1 (centres unmarked) [Example 50, 4-[3-(2-methylbutoxy)benzylidene]-N-pyridazin-3-ylpiperidine-1-carboxamide] | 4500 M⁻¹ s⁻¹
4 | CCC(C)Oc1cccc(C=C2CCN(C(=O)Nc3cccnc3)CC2)c1 (centres unmarked) [Example 23, 4-(3-sec-butoxybenzylidene)-N-pyridin-3-ylpiperidine-1-carboxamide] | 555 M⁻¹ s⁻¹
5 | O=C(Nc1cccnn1)N1CCC(=Cc2ccc3c(c2)OCCO3)CC1 [Example 4, 4-(2,3-dihydro-1,4-benzodioxin-6-ylmethylene)-N-pyridazin-3-ylpiperidine-1-carboxamide] | 2770 M⁻¹ s⁻¹
6 | N-pyridazin-3-yl-4-[3-(2-pyridin-4-ylethoxy)benzylidene]piperidine-1-carboxamide [Example 79] | 3834 M⁻¹ s⁻¹
7 | CC(C)CCOc1cccc(C=C2CCN(C(=O)Nc3cccnn3)CC2)c1 [Example 62, 4-[3-(3-methylbutoxy)benzylidene]-N-pyridazin-3-ylpiperidine-1-carboxamide] | 15200 M⁻¹ s⁻¹
8 | 4-{3-[(2,4-dimethyl-1,3-thiazol-5-yl)methoxy]benzylidene}-N-pyridazin-3-ylpiperidine-1-carboxamide [Example 69] | 331 M⁻¹ s⁻¹
9 | CC(COc1cccc(C=C2CCN(C(=O)Nc3cccnn3)CC2)c1)CC(F)(F)F (centres unmarked) [Example 99, N-pyridazin-3-yl-4-[3-(4,4,4-trifluoro-2-methylbutoxy)benzylidene]piperidine-1-carboxamide] | 10896 M⁻¹ s⁻¹
10 | O=C(Nc1cccnn1)N1CCC(=Cc2cccc(OC(F)(F)F)c2)CC1 [Example 5, N-pyridazin-3-yl-4-[3-(trifluoromethoxy)benzylidene]piperidine-1-carboxamide] | 2250 M⁻¹ s⁻¹
11 | O=C(Nc1cccnc1)N1CCC(=Cc2cccc(OC3CCCCC3)c2)CC1 [Example 7, 4-[3-(cyclohexyloxy)benzylidene]-N-pyridin-3-ylpiperidine-1-carboxamide] | 1220 M⁻¹ s⁻¹
12 | CCCC(CC)Oc1cccc(C=C2CCN(C(=O)Nc3cccnc3)CC2)c1 (centres unmarked) [Example 42, 4-[3-(1-ethylbutoxy)benzylidene]-N-pyridin-3-ylpiperidine-1-carboxamide] | 551 M⁻¹ s⁻¹
13 | O=C(Nc1cccnn1)N1CCC(=Cc2ccc3c(c2)OCO3)CC1 [Example 3, 4-(1,3-benzodioxol-5-ylmethylene)-N-pyridazin-3-ylpiperidine-1-carboxamide] | 2870 M⁻¹ s⁻¹
14 | O=C(Nc1cccnn1)N1CCC(=Cc2cccc(OCCCC(F)(F)F)c2)CC1 [Example 72, N-pyridazin-3-yl-4-[3-(4,4,4-trifluorobutoxy)benzylidene]piperidine-1-carboxamide] | 16800 M⁻¹ s⁻¹

Now from value to compound:

Row | hFAAH KInact/K | Compound
15 | 149 M⁻¹ s⁻¹ | COC(COc1cccc(C=C2CCN(C(=O)Nc3cccnn3)CC2)c1)c1ccccc1 (centres unmarked) [Example 56, 4-[3-(2-methoxy-2-phenylethoxy)benzylidene]-N-pyridazin-3-ylpiperidine-1-carboxamide]
16 | 325 M⁻¹ s⁻¹ | O=C(Nc1cccnn1)N1CCC(=Cc2cccc(OCCN3CCCCCC3)c2)CC1 [Example 80, 4-[3-(2-azepan-1-ylethoxy)benzylidene]-N-pyridazin-3-ylpiperidine-1-carboxamide]
17 | 1380 M⁻¹ s⁻¹ | CC(C)Oc1cccc(C=C2CCN(C(=O)Nc3cccnc3)CC2)c1 [Example 37, 4-(3-isopropoxybenzylidene)-N-pyridin-3-ylpiperidine-1-carboxamide]
18 | 2190 M⁻¹ s⁻¹ | O=C(Nc1cccnn1)N1CCC(=Cc2cccc(OCCc3cnoc3)c2)CC1 [Example 60, 4-[3-(2-isoxazol-4-ylethoxy)benzylidene]-N-pyridazin-3-ylpiperidine-1-carboxamide]
19 | 473 M⁻¹ s⁻¹ | CO[C@@H](COc1cccc(C=C2CCN(C(=O)Nc3cccnn3)CC2)c1)c1ccccc1 [Example 58, 4-{3-[(2R)-2-methoxy-2-phenylethoxy]benzylidene}-N-pyridazin-3-ylpiperidine-1-carboxamide]
20 | 907 M⁻¹ s⁻¹ | O=C(Nc1cccnc1)N1CCC(=Cc2cccc(OC3CCCOC3)c2)CC1 (centres unmarked) [Example 12, N-pyridin-3-yl-4-[3-(tetrahydro-2H-pyran-3-yloxy)benzylidene]piperidine-1-carboxamide]
21 | 1730 M⁻¹ s⁻¹ | O=C(Nc1cccnn1)N1CCC(=Cc2cccc(OC3CC3)c2)CC1 [Example 33, 4-[3-(cyclopropyloxy)benzylidene]-N-pyridazin-3-ylpiperidine-1-carboxamide]
22 | 629 M⁻¹ s⁻¹ | O=C(Nc1cccnn1)N1CCC(=Cc2cccc(OCc3cc4ccccc4o3)c2)CC1 [Example 88, 4-[3-(1-benzofuran-2-ylmethoxy)benzylidene]-N-pyridazin-3-ylpiperidine-1-carboxamide]
23 | 6850 M⁻¹ s⁻¹ | O=C(Nc1cccnn1)N1CCC(=Cc2cccc(OCC3CCC(F)(F)CC3)c2)CC1 [Example 82, 4-{3-[(4,4-difluorocyclohexyl)methoxy]benzylidene}-N-pyridazin-3-ylpiperidine-1-carboxamide]
24 | 573 M⁻¹ s⁻¹ | O=C(Nc1cccnn1)N1CCC(=Cc2cccc(OCC3CCCO3)c2)CC1 (centres unmarked) [Example 45, N-pyridazin-3-yl-4-[3-(tetrahydrofuran-2-ylmethoxy)benzylidene]piperidine-1-carboxamide]
25 | 992 M⁻¹ s⁻¹ | CC1CCC(Oc2cccc(C=C3CCN(C(=O)Nc4cccnc4)CC3)c2)CC1 (centres unmarked) [Example 36, 4-{3-[(4-methylcyclohexyl)oxy]benzylidene}-N-pyridin-3-ylpiperidine-1-carboxamide]
26 | 1750 M⁻¹ s⁻¹ | O=C(Nc1cccnn1)N1CCC(=Cc2cccc(OCC3CCOC3)c2)CC1 (centres unmarked) [Example 53, N-pyridazin-3-yl-4-[3-(tetrahydrofuran-3-ylmethoxy)benzylidene]piperidine-1-carboxamide]
27 | 131 M⁻¹ s⁻¹ | Cc1cc(COc2cccc(C=C3CCN(C(=O)Nc4cccnn4)CC3)c2)c(C(F)(F)F)o1 [Example 63, 4-(3-{[5-methyl-2-(trifluoromethyl)-3-furyl]methoxy}benzylidene)-N-pyridazin-3-ylpiperidine-1-carboxamide]
28 | 783 M⁻¹ s⁻¹ | O=C(Nc1cccnn1)N1CCC(=Cc2cccc(OC3CCCOC3)c2)CC1 (centres unmarked) [Example 19, N-pyridazin-3-yl-4-[3-(tetrahydro-2H-pyran-3-yloxy)benzylidene]piperidine-1-carboxamide]
29 | 3485 M⁻¹ s⁻¹ | O=C(Nc1cccnn1)N1CCC(=Cc2cccc(OCCc3ccccn3)c2)CC1 [Example 87, N-pyridazin-3-yl-4-[3-(2-pyridin-2-ylethoxy)benzylidene]piperidine-1-carboxamide]
